# Data as given in US10973776B1, “Loteprednol etabonate nanoparticles in thermoreversible gels for enhanced therapeutics” (University of South Florida, priority 2015, dated 2021).
# Entries after “also recorded” stand apart in the source; their conditions may differ.
# What was measured:
# Type in all cases: cell-based, Human
# ARPE-19 cells [1] = assay: MTT cytotoxicity assay of TA DDS; conditions: 10 μM, 24 h
# Method: (§1) Human retinal pigment epithelium, ARPE-19, cells (ATCC # CRL-2302) were grown in 1:1 Dulbecco's Modified Eagle's Medium and Ham's F12 Medium (Mediated, Inc., Manassas, Va.) with 10% fetal bovine serum and 100 Um′ penicillin/streptomycin (Sigma Aldrich, St. Louis, Mo.). The cultures were maintained in a humid environment at 5% CO2 and 37° C.
# The cytotoxicity of the DDS was assessed in ARPE-19 cells by the 3-(4,5-dimethylthiazol-2-yl)-2,5-diphenyltetrazolium bromide salt (MTT) assay. Briefly, cells were seeded in 24-well plates at a density of 5×10^4 cells/ml for 24 h to achieve confluency before treatment. Cells were exposed to free TA, TA NPs, and TA NP-TR gel at varying concentrations (0, 1, 10, 100 μM) for 24 h after which the MTT assay was performed. Cell culture media were aspirated, and […] of MTT reagent solution (1 mg/ml) was added to each well. Cells were incubated at 37° C. and 5% CO2 for 4 h, after which the MTT reagent solution was aspirated and 1 mL of DMSO was added to each well. Plates were allowed to shake gently for 10 min before being read by Synergy H4 plate reader (Biotek Industries, Inc., Winooski, Vt.) at absorbance of 570 nm.
# [2] = test system: VEGF secretion in ARPE-19 cells; assay: VEGF secretion ELISA, TA formulations; conditions: 10 μM, 72 h
# Method: Human retinal pigment epithelium, ARPE-19, cells (ATCC # CRL-2302) were grown in 1:1 Dulbecco's Modified Eagle's Medium and Ham's F12 Medium (Mediated, Inc., Manassas, Va.) with 10% fetal bovine serum and 100 Um′ penicillin/streptomycin (Sigma Aldrich, St. Louis, Mo.). The cultures were maintained in a humid environment at 5% CO2 and 37° C. ARPE-19 cells were seeded onto 24-well plates at 5×10^4 cells/ml and allowed to grow until confluence. On the day of study, cell culture media were replaced with 1% FBS experimental media and allowed to remain in quiescence for 12 h. The cellular monolayers were incubated with varying treatment concentrations of free TA solution (1, 10 and 100 μM), TA NPs (10 and 100 μM) and TA NP-TR gel (10 and 100 μM). Culture media were collected at 12 and 72 h. Secreted VEGF in collected culture media was quantified by the ELISA method (Human VEGFA ELISA kit, Thermo Scientific, Waltham, Mass.). The cell protein content was assayed using the BCA protein assay kit after lysing the cells, and VEGF secretion was normalized to total protein. Samples were read using the Synergy H4 plate reader (Biotek Industries, Inc., Winooski, Vt.) with absorbance at 450 nm minus absorbance at 550 nm.
# ARPE-19 cells [3] = assay: MTT cytotoxicity assay of LE DDS; conditions: 1, 10, 100 μM, 24 hours
# Method: as §1, with “(Mediatech,” for “(Mediated,”, “U/mL” for “Um′”
# Cytotoxicity was assessed in ARPE-19 cells by the 3-(4,5-dimethylthiazol-2-yl)-2,5-diphenyltetrazolium bromide salt (MTT) assay. Briefly, cells were seeded in 24-well plates at a density of 5×10^4 cells/mL for 24 hours to achieve confluence before treatment. Cells were exposed to free LE solution, LE NPs, and LE NPs-TR gel at varying concentrations (0, 1, 10, 100 μM) for 24 hours after which the MTT assay was performed. Cell culture media were aspirated and 300 μL of MTT reagent solution (1 mg/mL) was added to each well. Cells were incubated at 37° C. and 5% CO2 for 4 hours, after which the MTT reagent solution was aspirated and 500 μL of DMSO was added to each well. Plates were allowed to shake gently for 10 minutes before being read by Synergy H4 plate reader (Biotek Industries, Inc., Winooski, Vt.) at absorbance of 570 nm.
# [4] = test system: VEGF secretion in ARPE-19 cells; assay: VEGF secretion ELISA, LE formulations
# Method: as §1, with “(Mediatech,” for “(Mediated,”, “U/mL” for “Um′”
# ARPE-19 cells were seeded onto 24-well plates at 5×10^4 cells/mL and allowed to grow until confluence. On the day of study, cell culture media were replaced with 1% FBS experimental media and allowed to remain in quiescence for 12 hours. The cellular monolayers were incubated with varying treatment concentrations of free LE solution (1, 10 μM), LE NPs (10 μM), and LE NPs-TR gel (10 μM). Culture media were collected at 12 and 72 hours. Secreted VEGF in collected culture media was quantified by the ELISA method (Human VEGFA ELISA kit, Thermo Scientific, Waltham, Mass.). The cell protein content was assayed using the BCA protein assay kit after lysing the cells and VEGF secretion was normalized to total protein. Samples were read by using the Synergy H4 plate reader (Biotek Industries, Inc., Winooski, Vt.) with absorbance at 450 nm minus absorbance at 550 nm.
SMILES,MTT cytotoxicity vs untreated control cells (ARPE-19 cells [1]),suppression of VEGF expression [2],MTT cytotoxicity vs untreated control cells (ARPE-19 cells [3]),MTT cytotoxicity vs untreated control cells (ARPE-19 cells [3]; listed as free LE solution),"suppression of VEGF expression vs media control ([4]; 1 μM, 12 hours)","suppression of VEGF secretion vs control ([4]; 10 μM, 12 hours)","reduction of VEGF expression compared to control ([4]; within 12 hours, p<0.05, concentration not stated)"
"CC1(C)O[C@@H]2C[C@H]3[C@@H]4CCC5=CC(=O)C=C[C@]5(C)[C@@]4(F)[C@@H](O)C[C@]3(C)[C@]2(C(=O)CO)O1 [free TA, Triamcinolone acetonide]",induced significant cell death; also recorded: cytotoxic,no significant effect,–,–,–,–,–
"CCOC(=O)O[C@]1(C(=O)OCCl)CC[C@H]2[C@@H]3CCC4=CC(=O)C=C[C@]4(C)[C@H]3[C@@H](O)C[C@@]21C [free LE, Loteprednol etabonate]",–,–,no impact on cell viability,no cytotoxicity,showed reduction in VEGF expression,showed reduction in VEGF expression,significantly reduced VEGF expression
